Here are results for one compound from ChEMBL document CHEMBL3526034 (Drug Metab Dispos, 2013).

Molecules are shown by their SMILES. pIC50: −log10 of the molar value. Some results are limits rather than exact numbers.

One series deals with Hepatocyte. In words: Induction of CYP3A4 mRNA expression in human hepatocytes at 1 to 40 uM after 48 hrs by real time PCR analysis. Format: ADME, cell-based. Background: In qPCR the cycle at which signal appears reflects the starting amount.
Series [1] addresses T1, BCRP (ABCG2) (Homo sapiens, UniProt Q9UNQ0).
T1 sequence (Q9UNQ0 whole entry): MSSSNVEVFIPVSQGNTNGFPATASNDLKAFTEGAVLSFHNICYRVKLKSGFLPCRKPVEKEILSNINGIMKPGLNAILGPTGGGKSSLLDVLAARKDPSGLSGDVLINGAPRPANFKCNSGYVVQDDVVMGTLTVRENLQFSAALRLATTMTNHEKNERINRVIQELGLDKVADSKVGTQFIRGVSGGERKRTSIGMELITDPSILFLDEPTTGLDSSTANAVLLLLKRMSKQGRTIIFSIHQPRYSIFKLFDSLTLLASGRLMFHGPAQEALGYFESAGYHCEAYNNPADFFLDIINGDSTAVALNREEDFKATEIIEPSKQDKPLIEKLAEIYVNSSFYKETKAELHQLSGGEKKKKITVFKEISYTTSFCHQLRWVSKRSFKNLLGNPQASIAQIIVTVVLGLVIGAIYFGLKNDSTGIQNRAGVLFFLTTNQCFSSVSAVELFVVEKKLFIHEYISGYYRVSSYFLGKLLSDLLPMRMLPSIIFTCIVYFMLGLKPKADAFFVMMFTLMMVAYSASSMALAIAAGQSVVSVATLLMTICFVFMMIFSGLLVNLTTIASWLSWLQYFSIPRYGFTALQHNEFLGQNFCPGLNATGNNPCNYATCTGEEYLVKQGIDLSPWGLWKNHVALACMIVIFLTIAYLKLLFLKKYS
In words: Activity at human BCRP expressed in MDCK2 cells assessed as basolateral to apical mass balance at 3 uM by liquid scintillation counting analysis. Format: ADME, cell-based, MDCK-II. To be noted: read-out: Activity.

For series [2], the target named is ATP-binding cassette sub-family C member 2 (Homo sapiens, UniProt Q92887). In words: Inhibition of human MRP2 expressed in baculovirus-infected Sf9 cell membrane vesicle using [3H]estradiol 17beta-D-glucuronide as substrate preincubated with vesicles for 5 mins prior to substrate addition by liquid scintillation counting analysis.
ATP-binding cassette sub-family C member 2, sequence (Q92887 whole entry): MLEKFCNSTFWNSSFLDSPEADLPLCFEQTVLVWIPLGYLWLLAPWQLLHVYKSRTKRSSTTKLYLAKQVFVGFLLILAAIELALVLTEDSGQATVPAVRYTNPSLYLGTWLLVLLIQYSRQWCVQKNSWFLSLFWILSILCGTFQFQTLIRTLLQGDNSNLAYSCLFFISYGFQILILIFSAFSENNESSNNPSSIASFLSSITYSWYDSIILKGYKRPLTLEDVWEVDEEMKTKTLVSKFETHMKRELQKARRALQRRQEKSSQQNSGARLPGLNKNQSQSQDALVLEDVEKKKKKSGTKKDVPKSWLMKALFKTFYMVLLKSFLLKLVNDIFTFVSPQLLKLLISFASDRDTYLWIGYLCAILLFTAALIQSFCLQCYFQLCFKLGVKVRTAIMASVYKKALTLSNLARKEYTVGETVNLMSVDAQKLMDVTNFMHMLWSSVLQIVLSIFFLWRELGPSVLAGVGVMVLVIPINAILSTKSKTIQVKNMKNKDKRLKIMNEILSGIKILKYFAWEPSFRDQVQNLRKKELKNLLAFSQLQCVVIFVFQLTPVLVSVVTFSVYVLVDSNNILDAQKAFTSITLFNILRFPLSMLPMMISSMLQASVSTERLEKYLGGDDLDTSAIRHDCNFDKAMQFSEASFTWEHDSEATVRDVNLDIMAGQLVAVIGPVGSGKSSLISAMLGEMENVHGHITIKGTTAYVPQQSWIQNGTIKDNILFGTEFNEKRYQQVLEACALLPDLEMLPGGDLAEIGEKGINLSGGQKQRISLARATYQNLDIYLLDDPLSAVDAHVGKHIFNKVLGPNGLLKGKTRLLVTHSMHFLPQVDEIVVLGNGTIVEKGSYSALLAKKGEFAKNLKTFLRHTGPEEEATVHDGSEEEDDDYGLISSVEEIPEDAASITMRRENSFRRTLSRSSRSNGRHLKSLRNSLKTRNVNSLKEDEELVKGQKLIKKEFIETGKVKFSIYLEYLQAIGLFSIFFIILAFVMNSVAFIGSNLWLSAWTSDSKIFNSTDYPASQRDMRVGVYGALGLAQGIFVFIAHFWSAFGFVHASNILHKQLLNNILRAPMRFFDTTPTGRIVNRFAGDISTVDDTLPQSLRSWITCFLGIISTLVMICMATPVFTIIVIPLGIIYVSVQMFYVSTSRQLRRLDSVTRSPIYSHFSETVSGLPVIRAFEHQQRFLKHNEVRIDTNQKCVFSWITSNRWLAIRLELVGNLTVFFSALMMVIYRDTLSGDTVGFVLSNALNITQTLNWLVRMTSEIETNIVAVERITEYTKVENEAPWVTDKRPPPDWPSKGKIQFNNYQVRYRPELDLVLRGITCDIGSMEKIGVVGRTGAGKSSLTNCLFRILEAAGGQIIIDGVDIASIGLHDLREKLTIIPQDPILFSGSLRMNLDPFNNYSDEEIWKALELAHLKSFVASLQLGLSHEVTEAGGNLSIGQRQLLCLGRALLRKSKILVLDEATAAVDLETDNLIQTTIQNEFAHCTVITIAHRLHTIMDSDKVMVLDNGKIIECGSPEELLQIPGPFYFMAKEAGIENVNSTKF
A further series has as its target Cytochrome P450 2D6 (Homo sapiens, UniProt P10635). In words: Inhibition of CYP2D6 in human liver microsomes using bufuralol as substrate preincubated for 20 mins with substrate prior to initiation of reaction with NADPH by HPLC analysis. Format: ADME. A general note: Liver microsomes are vesicles of endoplasmic reticulum, rich in cytochrome P450 enzymes.
A further series has as its target Cytochrome P450 3A4 (Homo sapiens, UniProt P08684). Description: Drug metabolism in supersomes expressing human recombinant CYP3A4 assessed as NADPH-fortified enzyme-mediated metabolite M3 ((4R,12aS)-N-((3,5-difluorophenyl)(hydroxy)methyl)-7-hydroxy-4-methyl-6,8-dioxo-3,4,6,8,12,12a-hexahydro-2H-[1,3]oxazino[3,2-d]pyrido[1,2-a]pyrazine-9-carboxamide) formation at 5 uM after 120 mins by radio-HPLC analysis in presence of selective CYP3A4 inhibitor azamulin. Format: ADME.

Another series concerns the target MDR1 (P-gp, ABCB1) (Homo sapiens, UniProt P08183). Description: Activity at human MDR1 expressed in MDCK2 cells assessed as basolateral to apical mass balance at 3 uM by liquid scintillation counting analysis. Format: ADME, cell-based, MDCK-II. To be noted: MDCK-MDR1, read-out: Activity.
Series [3] in a line: In vitro passive membrane permeability across dog MDCK2 cells at 3 uM using fasted state-simulated intestinal fluid buffer at pH 7.4 on donor side and 1% human serum albumin at pH 7.4 on receiver side by liquid scintillation counting analysis. Format: ADME, cell-based, Canis lupus familiaris, MDCK-II. Particulars: MDCK, read-out: permeability.
The target in series [4] is T1, BCRP (ABCG2). Description: Activity at human BCRP expressed in MDCK2 cells assessed as apical to basolateral mass balance at 3 uM by liquid scintillation counting analysis in presence of 3 uM P-gp and BCRP inhibitor GF120918. Format: ADME, cell-based, MDCK-II. Particulars: with GF120918 (P-gp and BCRP inhibitor), read-out: Activity.
Another series has as its target CYP2C19 (Homo sapiens, UniProt P33261). Description: Inhibition of CYP2C19 in human liver microsomes using S-mephenytoin as substrate at 100 uM preincubated for 20 mins with substrate prior to initiation of reaction with NADPH by HPLC analysis. Format: ADME. Particulars: probe S-mephenytoin.
Series [5] concerns the target Solute carrier organic anion transporter family member 1B1 (Homo sapiens, UniProt Q9Y6L6). In words: Inhibition of human OATP1B1 expressed in CHO cells using [3H]estradiol 17beta-D-glucuronide as substrate by liquid scintillation counting analysis. Format: ADME, cell-based.
Series [6] concerns the target Solute carrier family 22 member 2 (Homo sapiens, UniProt O15244). Description: Inhibition of human OCT2 expressed in MDCK2 cells using [14C]metformin as substrate by liquid scintillation counting analysis. Format: ADME, cell-based, MDCK-II.
The next series concerns Liver microsome. In words: Drug metabolism in UDPGA-fortified human liver microsomes assessed as DTG glucuronide metabolite ((2S,3S,4S,5R,6S)-6-((4R,12aS)-9-(2,4-difluorobenzylcarbamoyl)-4-methyl-6,8-dioxo-3,4,6,8,12,12a-hexahydro-2H-[1,3]oxazino[3,2-d]pyrido[1,2-a]pyrazin-7-yloxy)-3,4,5-trihydroxytetrahydro-2H-pyran-2-carboxylic acid) formation at 10 uM after 120 mins by radio-HPLC analysis in presence of UGT1A1 inhibitor atazanavir. Format: ADME.

In series [7] the target is T2, UDP-glucuronosyltransferase 1A1 (Homo sapiens, UniProt P22309).
T2 sequence (P22309 whole entry): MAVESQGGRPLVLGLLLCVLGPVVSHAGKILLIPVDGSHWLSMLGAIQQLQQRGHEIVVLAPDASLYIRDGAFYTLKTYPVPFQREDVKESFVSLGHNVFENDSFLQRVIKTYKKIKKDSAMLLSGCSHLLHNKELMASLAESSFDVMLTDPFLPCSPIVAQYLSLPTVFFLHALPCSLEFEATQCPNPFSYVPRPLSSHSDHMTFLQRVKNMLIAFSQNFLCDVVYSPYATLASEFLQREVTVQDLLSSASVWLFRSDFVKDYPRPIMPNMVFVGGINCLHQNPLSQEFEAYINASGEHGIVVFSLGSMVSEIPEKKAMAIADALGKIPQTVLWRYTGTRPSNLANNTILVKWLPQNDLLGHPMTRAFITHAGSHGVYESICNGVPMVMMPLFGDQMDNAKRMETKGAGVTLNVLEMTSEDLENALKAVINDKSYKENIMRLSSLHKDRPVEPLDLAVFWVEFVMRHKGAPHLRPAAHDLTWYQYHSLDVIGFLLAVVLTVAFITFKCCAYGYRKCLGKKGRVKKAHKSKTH
Description: Drug metabolism in UDPGA-fortified human liver microsomes assessed as intrinsic clearance for UGT1A1-mediated DTG glucuronide M2 ((2S,3S,4S,5R,6S)-6-((4R,12aS)-9-(2,4-difluorobenzylcarbamoyl)-4-methyl-6,8-dioxo-3,4,6,8,12,12a-hexahydro-2H-[1,3]oxazino[3,2-d]pyrido[1,2-a]pyrazin-7-yloxy)-3,4,5-trihydroxytetrahydro-2H-pyran-2-carboxylic acid) formation after 120 mins measured per mg of protein by radio-HPLC analysis. Format: ADME.

Cytochrome P450 3A4, sequence (P08684 whole entry): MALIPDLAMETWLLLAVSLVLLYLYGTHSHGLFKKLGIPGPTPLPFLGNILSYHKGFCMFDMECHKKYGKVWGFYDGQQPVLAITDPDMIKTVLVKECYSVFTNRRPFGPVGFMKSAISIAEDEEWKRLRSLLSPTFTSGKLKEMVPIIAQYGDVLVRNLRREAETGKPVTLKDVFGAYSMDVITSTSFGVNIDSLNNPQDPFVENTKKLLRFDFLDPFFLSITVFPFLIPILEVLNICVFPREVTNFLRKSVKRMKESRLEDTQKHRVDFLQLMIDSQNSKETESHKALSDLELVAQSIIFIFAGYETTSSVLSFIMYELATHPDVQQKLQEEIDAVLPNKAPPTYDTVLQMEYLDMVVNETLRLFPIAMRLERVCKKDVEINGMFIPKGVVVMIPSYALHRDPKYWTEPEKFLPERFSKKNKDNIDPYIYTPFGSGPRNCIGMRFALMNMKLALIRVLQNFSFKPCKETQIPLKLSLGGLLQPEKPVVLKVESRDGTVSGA
Solute carrier family 22 member 2, sequence (O15244 whole entry): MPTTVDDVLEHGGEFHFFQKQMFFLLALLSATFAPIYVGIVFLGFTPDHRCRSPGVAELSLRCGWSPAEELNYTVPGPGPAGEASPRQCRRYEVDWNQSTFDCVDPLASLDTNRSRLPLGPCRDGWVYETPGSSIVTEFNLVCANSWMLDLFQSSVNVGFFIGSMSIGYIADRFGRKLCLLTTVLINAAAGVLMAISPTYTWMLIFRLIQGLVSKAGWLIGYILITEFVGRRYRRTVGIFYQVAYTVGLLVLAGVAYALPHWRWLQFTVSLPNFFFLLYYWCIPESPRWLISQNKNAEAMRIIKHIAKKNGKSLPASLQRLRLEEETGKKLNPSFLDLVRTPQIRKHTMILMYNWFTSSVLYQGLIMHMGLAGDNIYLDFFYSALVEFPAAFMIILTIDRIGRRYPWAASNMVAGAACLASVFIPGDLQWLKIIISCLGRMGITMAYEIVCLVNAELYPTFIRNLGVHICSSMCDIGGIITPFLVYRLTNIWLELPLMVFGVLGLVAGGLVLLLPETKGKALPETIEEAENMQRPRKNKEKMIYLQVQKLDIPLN
Solute carrier organic anion transporter family member 1B1, sequence (Q9Y6L6 whole entry): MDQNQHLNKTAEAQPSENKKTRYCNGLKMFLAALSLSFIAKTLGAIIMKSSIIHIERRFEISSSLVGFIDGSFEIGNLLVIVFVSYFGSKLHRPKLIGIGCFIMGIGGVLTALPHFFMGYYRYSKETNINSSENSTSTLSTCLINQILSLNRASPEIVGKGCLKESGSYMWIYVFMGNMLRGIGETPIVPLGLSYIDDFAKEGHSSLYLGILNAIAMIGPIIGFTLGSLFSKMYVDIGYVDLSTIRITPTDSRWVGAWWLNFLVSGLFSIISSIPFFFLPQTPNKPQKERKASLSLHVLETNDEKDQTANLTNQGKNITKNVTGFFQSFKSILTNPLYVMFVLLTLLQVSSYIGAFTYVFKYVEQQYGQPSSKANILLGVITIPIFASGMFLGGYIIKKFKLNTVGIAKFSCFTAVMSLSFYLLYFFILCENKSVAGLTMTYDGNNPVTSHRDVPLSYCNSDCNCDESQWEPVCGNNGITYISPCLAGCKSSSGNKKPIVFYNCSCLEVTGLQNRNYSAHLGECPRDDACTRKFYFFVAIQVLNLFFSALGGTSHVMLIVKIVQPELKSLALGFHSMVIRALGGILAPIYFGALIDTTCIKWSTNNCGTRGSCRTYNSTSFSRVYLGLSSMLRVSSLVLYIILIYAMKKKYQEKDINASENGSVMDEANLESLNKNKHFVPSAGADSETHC
CYP2C19, sequence (P33261 whole entry): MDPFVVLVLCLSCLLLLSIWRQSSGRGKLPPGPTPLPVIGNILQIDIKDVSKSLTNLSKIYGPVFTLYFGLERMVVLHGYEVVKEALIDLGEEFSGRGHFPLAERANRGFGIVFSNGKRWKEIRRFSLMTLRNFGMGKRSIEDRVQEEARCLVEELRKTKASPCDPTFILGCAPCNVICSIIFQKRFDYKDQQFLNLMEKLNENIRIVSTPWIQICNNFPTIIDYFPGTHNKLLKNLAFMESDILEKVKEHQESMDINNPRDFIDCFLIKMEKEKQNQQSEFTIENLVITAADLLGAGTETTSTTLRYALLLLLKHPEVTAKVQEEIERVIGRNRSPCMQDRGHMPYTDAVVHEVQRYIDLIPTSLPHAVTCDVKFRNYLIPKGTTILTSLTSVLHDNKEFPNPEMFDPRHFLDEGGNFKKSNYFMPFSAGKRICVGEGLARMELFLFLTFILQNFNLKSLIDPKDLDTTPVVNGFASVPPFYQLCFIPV
MDR1 (P-gp, ABCB1), sequence (P08183 whole entry): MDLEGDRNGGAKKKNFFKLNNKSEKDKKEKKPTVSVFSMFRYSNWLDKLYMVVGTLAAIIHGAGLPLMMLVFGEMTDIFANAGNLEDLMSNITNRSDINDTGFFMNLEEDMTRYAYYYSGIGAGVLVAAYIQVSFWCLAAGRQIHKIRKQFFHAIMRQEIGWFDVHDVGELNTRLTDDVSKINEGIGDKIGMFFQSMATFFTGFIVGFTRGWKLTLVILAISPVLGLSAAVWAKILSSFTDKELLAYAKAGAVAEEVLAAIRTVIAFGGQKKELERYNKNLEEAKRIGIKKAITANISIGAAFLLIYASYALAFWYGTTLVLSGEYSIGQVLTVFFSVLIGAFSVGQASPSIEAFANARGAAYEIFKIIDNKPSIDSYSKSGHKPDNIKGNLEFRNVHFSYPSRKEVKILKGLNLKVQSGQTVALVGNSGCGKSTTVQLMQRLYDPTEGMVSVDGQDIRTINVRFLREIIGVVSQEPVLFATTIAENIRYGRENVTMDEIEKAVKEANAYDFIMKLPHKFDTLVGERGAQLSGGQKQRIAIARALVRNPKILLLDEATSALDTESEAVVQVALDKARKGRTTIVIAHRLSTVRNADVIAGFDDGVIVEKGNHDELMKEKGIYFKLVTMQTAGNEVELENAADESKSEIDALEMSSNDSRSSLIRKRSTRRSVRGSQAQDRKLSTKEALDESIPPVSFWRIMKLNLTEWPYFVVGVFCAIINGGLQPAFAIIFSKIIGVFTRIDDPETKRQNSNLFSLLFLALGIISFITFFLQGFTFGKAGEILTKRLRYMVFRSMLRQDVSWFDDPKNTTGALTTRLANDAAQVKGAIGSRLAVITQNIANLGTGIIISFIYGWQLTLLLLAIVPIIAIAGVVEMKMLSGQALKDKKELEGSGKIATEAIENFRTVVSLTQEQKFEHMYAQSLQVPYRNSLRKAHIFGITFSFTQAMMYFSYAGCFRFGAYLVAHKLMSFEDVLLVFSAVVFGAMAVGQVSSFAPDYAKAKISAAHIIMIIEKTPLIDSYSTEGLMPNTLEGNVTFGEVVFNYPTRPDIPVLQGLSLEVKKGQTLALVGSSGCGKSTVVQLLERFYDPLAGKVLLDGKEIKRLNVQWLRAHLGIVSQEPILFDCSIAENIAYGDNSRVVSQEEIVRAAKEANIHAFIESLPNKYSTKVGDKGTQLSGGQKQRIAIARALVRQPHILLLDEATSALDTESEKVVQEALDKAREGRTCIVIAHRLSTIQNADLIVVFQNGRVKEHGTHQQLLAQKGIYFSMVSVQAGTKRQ

On to `C[C@@H]1CCO[C@H]2Cn3cc(C(=O)NCc4ccc(F)cc4F)c(=O)c(O)c3C(=O)N12` [DOLUTEGRAVIR], for which the Activity result with Hepatocyte is listed as “Toxic”. Also, the recovery at 3 µM came out at 85% at BCRP (ABCG2) [1]; 84% on MDR1 (P-gp, ABCB1); 81% on BCRP (ABCG2) [4]. In addition, the pIC50 – broadly, −log10 of the IC50, conventionally taken in molar units – in series [2] was less than 4.00; at Cytochrome P450 2D6 it was less than 4.00; in [5], less than 4.00; in [6] it was 5.72. In addition, the Drug metabolism result at Cytochrome P450 3A4 and in the series on Liver microsome was “metabolite_not_detected” each time. In addition, in series [3], the Papp at 3 µM was 25.2 ×10⁻⁶ cm/s. Besides, at CYP2C19, the inhibition (commonly the change of the read-out against control, counted positive when it falls) at 100 µM came to 20%. Besides, the CLH in [7] turned out to be 2.7 µL/min/g.
